Data from EP1487434B1, “BOTANICAL EXTRACT COMPOSITIONS WITH ANTI-CANCER ACTIVITY COMPRISING ISOLIQUIRITIGENIN” (The Medical Research and Education Trust, priority 2002, dated 2003).
In brackets after ≈: the same amount, converted by molar mass.

Columns and labels:
Assay type in all cases: cell-based
[1] = tested on: DU-145 (androgen-independent) prostate cancer cells; assay: MTT cell viability assay, DU-145; settings: Homo sapiens, DU-145, 72 h, read-out: ED50 values from MTT Assay, DU145
From the text: (§1) Cancer cell lines: LNCaP, DU-145, and MCF-7 cells were purchased from the American Type Culture Collection. PTX 10, a taxol-resistant ovarian cancer cell line, was obtained from the Brander Cancer Research Laboratory, New York Medical College. Cells were maintained in RPMI 1640 culture media supplemented with 10% heat-inactivated FBS, 5 millimolar glutamine, 50 units/milliliter of penicillin G, and 50 […] of streptomycin. The cells were routinely seeded at 1X 10^5 cells/milliliter in T-75 flasks, allowed to attach overnight, then treated with the herbal extract. At different times, cells were harvested by trypsinization.
(§2) The MTT assay (MTT = 3-(4,5-dimethylthiazol-2-yl)-2,5-diphenyl tetrazolium bromide) was used to count viable cells. The assay reagents were purchased from Boehringer Mannheim (Roche Diagnosis Corp, Indianapolis, Indiana). […] The protocol for the cell , viability assay was provided by the manufacturer and modified in our laboratory as described below.
(§3) Prostate or breast (reference) cancer cells were seeded in 96 well microtiter plates at a concentration of 3x10^3 cells per well (MCF-7; breast cancer cells) or 6x10^3 cells per well (LNCaP or DU145; prostate cancer cells), in a volume of 100 microliters of cell culture medium. After 24 hours, 20 microliter aliquots of the compounds at various concentrations were added to the attached cells. […]

LNCaP cells = assay: Cell cycle measurement by DNA content flow cytometry, LNCaP; settings: two concentrations, 24-48 hours exposure
Experimental: (§4) The cells were washed with phosphate buffered saline (PBS) and fixed in ice-cold 70% ethanol. Aliquots of fixed cells were rehydrated in PBS and stained with 1.0 microgram/milliliter DAPI (4,6-diamidino-2-phenylindole from Eastman Kodak, Rochester, NY), and dissolved in 10 millimolar piperazine-N,N-bis-2-ethane-sulfonic acid buffer (Calbiochem, La Jolla, CA) containing 100 millimolar NaCl, 2mM MgCl2 and 0.1% Triton X-100 (Sigma) at pH 6.8 as previously described by Halicka et al. (H. D. Halicka, B. Ardelt, G. Juan, A. Mittelman, S. Chen, F. Traganos and Z. Darzynkiewicz, "Apoptosis and Cell Cycle Effects Induced by Extracts of the Chinese Herbal Preparation of PC SPES", International J. of Oncology (1997), 11: 437-448).
(§5) The cellular DNA content was measured with an ELITE ESP flow cytometer (Coulter Inc., F1.) using UV laser illumination. The multicycle program was used to deconvolute the DNA frequency histograms to estimate the frequency of cells in different phases of the cell cycle.

[2] = tested on: MCF-7 breast cancer cells; assay: MTT cell viability assay, MCF-7; settings: Homo sapiens, MCF7; concentration giving 50% inhibition of cancer cell growth, 72 hours, linear interpolation; read-out: ED50 values from MTT Assay, MCF7
From the text: as §1, §2, §3

hERα = biological target: T1, hERα (Homo sapiens, UniProt P03372); assay: ERα-Luc reporter gene activation in transfected HEK 293 cells; settings: 0 to 9 µg/ml, 20 hours
T1 construct: expressed in transfected cells; host or cells: HEK 293 cells (ATCC CRL-1573)
From the text: (§6) HEK 293 cells (ATCC CRL-1573) were transfected with an expression vector for hERα and hERβ respectively, and an ERE-LUC reporter gene (plus a TK-LUC reporter for normalization) following the protocol of Yoon et al ("Differential activation of wild-type and variant forms of estrogen receptor α by synthetic and natural estrogenic compounds using a promoter containing three estrogen-responsive elements", J. Steroid Biochem. & Molecular Biology (2000), 28: pages 25-32).

[3] = tested on: LNCaP (androgen-dependent) prostate cancer cells; assay: MTT cell viability assay, LNCaP; settings: Homo sapiens, 72 h, read-out: ED50 values from MTT Assay, LNCaP
From the text: as §1, §2, §3

[4] = tested on: PTX 10, a taxol resistant ovarian cancer cell line; assay: MTT cell viability assay, PTX 10; settings: PTX10, 72 h, read-out: ED50, PTX 10 (taxol resistant Ovarian cancer cell)
hERβ = biological target: T2, hERβ (Homo sapiens, UniProt Q92731); assay: ERβ-Luc reporter gene activation in transfected HEK 293 cells; settings: for capability in activating ERβ-Luc reporter gene than the ERα-Luc reporter gene: ERβ-Luc versus ERα-Luc, 1200 min; for ERβ-Luc reporter gene activation: HEK 293 cells, 0 to 9 µg/ml, 20 hours
T2 construct: expressed in transfected cells; host or cells: HEK 293 cells (ATCC CRL-1573)
From the text: as §6

DU-145 = assay: Cell cycle measurement by DNA content flow cytometry, DU-145; settings: protocol of Example 3
Experimental: as §4, §5
A prolongation in the G2M phase leads to the suppression of DU-145 cell proliferation.

T2 sequence (Q92731 whole entry): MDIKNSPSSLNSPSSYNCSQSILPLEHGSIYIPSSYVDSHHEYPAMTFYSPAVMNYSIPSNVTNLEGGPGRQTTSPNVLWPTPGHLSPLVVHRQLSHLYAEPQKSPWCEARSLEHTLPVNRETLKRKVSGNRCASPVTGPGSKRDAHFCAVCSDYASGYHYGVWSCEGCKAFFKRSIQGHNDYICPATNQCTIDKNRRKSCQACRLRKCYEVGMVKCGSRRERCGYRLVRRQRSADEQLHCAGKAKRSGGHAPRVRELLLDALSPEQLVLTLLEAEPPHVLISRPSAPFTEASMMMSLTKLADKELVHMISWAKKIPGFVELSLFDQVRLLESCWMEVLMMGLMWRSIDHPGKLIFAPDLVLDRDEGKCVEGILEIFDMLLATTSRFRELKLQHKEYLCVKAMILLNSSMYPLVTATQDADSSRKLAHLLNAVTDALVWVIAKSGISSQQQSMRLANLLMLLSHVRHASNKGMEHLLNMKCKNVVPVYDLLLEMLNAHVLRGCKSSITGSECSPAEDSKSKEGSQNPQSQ
T1 sequence (P03372 whole entry): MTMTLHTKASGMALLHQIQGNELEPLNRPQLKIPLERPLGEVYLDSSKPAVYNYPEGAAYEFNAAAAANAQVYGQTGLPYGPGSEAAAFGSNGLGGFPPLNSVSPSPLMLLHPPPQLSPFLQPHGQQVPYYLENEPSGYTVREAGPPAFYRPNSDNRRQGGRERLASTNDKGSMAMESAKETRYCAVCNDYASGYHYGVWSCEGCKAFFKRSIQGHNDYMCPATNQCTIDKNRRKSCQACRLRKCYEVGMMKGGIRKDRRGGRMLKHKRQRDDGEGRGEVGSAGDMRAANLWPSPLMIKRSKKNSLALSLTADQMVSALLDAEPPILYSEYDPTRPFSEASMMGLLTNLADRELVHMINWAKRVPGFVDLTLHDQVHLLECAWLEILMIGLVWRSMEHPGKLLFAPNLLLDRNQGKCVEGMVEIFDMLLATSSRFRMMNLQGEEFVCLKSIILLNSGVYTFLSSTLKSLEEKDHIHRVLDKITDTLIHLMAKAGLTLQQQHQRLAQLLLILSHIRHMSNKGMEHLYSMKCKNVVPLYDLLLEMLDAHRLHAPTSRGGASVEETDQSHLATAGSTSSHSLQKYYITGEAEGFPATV

| SMILES | IC50 [1] | effect on G1, S, and G2M phases of the LNCaP cell cycle (LNCaP cells) | IC50 [2] | ERα-Luc reporter gene activation (hERα) | IC50 [3] | IC50 [4] | capability in activating ERβ-Luc reporter gene than the ERα-Luc reporter gene (hERβ) | ERβ-Luc reporter gene activation (hERβ) | effect on DU-145 cell cycle (DU-145) |
| --- | --- | --- | --- | --- | --- | --- | --- | --- | --- |
| O=C(/C=C/c1ccc(O)cc1)c1ccc(O)cc1O [isoliquiritigenin, 2',4,4'-trihydroxychalcone] | 7.6 µg/mL (≈ 29.7 µM) | G2M phase arrest | 3.25 µg/mL (≈ 12.7 µM) | dose-responsive behavior | 3.51 µg/mL (≈ 13.7 µM) | 3.32 µg/mL (≈ 13 µM) | at least 10 times | dose-responsive behavior | – |
| COc1c(O)cc(O)c2c(=O)cc(-c3ccccc3)oc12 [Wogonin, 5,7-dihydroxy-8-methoxy-flavone] | – | G1 phase arrest | – | dose-responsive behavior | – | – | at least 10 times | dose-responsive behavior | prolonged the G2M phase |
